Measured values reported in EP0256909B1, “N,N-bis-(4-fluorophenyl) carbamoyl acetohydroxamic acid and pharmaceutical composition containing it” (priority 1986, dated 1988).

How the values were obtained:
rat = experiment: Interaction with amphetamine; assay type: in vivo; details: comparison section, no dose given
souris [1] = experiment: Interaction with reserpine; assay type: in vivo; details: 64 mg/kg, comparison section
Description: Quatre heures après l'injection intrapéritonéale de 2,5 mg/kg de réserpine, des lots de 6 souris reçoivent le CRL 41131.

souris [2] = experiment: Interaction with oxotremorine; assay type: in vivo; details: mouse, oxotremorine 0,5 mg/kg i.p.
Description: Le CRL 41131 est administré à des lots de 6 souris 30 min avant l'injection intrapéritonéale de 0,5 mg/kg d'oxotrémorine.

souris [3] = experiment: Electroshock test; assay type: in vivo; details: comparison section, no dose given
souris [4] = experiment: Intergroup aggressiveness; assay type: in vivo; details: 32 et 256 mg/kg, comparison section
Description: Après avoir séjourné pendant 3 semaines dans chacune des moitiés d'une cage séparées par une cloison opaque, des groupes de 3 souris reçoivent le CRL 41131. Trente minutes plus tard, les deux groupes d'une même cage sont réunis par retrait de la cloison et on note le nombre de combats qui surviennent en 10 min.

souris [5] = experiment: Interaction with barbital; assay type: in vivo; details: comparison section
Description: Trente minutes après l'administration de CRL 41131, des lots de 10 souris reçoivent une injection intrapéritonéale de barbital (220 mg/kg).

in vivo = details: mouse, in vivo; for LD50 at 24 h: dose létale 50% (DL50), 24 h after administration
Description: Le CRL 41131, en suspension dans une solution de gomme arabique à 5%, a été administré par voie intrapéritonéale sous un volume de 20 ml/kg chez la souris (mâle, NMRI, Evic Ceba) et de 5 ml/kg chez le rat (mâle, CD1, Sprague Dawley, Charles River).
Aussitôt après l'administration de CRL 41131, les souris groupées par lots de 10 sont placées dans des boîtes en Plexiglass (20 x 10 x 10 cm).
On note le nombre d'animaux morts, toutes les heures pendant 4 h et après 24, 48 et 72 h.
La toxicité du CRL 41131 est déterminée dans les mêmes conditions sur des lots de souris placées à raison d'une par boîte.

[6] = results given in the earlier document; cited from earlier work

O=C(CC(=O)N(c1ccccc1)c1ccccc1)NO [CRL 40385, reference compound]
test à l'amphétamine: stéréotypies du rat (rat): prolonge les stéréotypies du rat
test à la réserpine: hypothermie (souris [1]): s'oppose modérément
action hypothermisante de l'oxotrémorine (température) (souris [2]): antagonise l'hyperthermie
intensité des tremblements provoqués par l'oxotrémorine (souris [2]): diminue l'intensité des tremblements
test à l'électrochoc (souris [3]): s'oppose aux convulsions
agressivité intergroupe des souris (souris [4]): augmentation
sommeil (association au barbital) (souris [5]; 512 mg/kg): il ne le fait plus
sommeil (association au barbital) (souris [5]; doses below 512 mg/kg): diminue d'abord le sommeil
LD50 at 24 h (in vivo; ip, grouped mice): ~1050 mg/kg
LD50 at 24 h (in vivo; ip, isolated mice): ~1500 mg/kg
effet mis en évidence par un ensemble de tests [6]: effet anti-fatigue

CC(Cc1ccccc1)N(C)Cc1ccccc1 (stereo not shown) [benzophétamine, reference compound]
selectivity ratio (in vivo; ip, rapport, LD50 ratio isolated/grouped mice (formula not readable), same conditions, 24 h): ~4

CCN(CC)C(C)C(=O)c1ccccc1 (stereo not shown) [diéthylpropion, reference compound]
selectivity ratio at 24 h (in vivo): ~8
